Tested on: human mammary cancer-derived KPL-4 cells
Assay: Cell growth inhibition test with KPL-4 cells (WST-1)
Assay type: cell-based
Settings: KPL4, 72 hours, read-out: 50% growth inhibition concentration (GI50)
Experimental: In a 96-well plate (Nunc), human mammary cancer-derived KPL-4 cells were sown in an amount of 2000 cells/well, and pre-incubated in 10% fetal calf serum (FCS)-containing Dulbecco Modified Eagle Medium (DMEM) (incubation medium) in a 5% carbon dioxide incubator at 37° C. for 24 hours. A dimethylsulfoxide (DMSO) solution of a test compound controlled at 10 mmol/L was stepwise diluted with the incubation medium, and added to each well in a total amount of 100 μL/well, and incubated in the 5% carbon dioxide incubator at 37° C. for 72 hours. After the incubation, WST-1 {4-[3-(4-Iodophenyl)-2-(4-nitrophenyl)-2H-5-tetrazolio]-1,3-benzene disulfonate}-labeled mixture (Rosh Diagnostic) diluted 2-fold with the incubation medium was added thereto in an amount of 20 μL/well, and incubated in the 5% carbon dioxide incubator at 37° C. for 1 hour. Using a microplate spectrophotometer (Biorad's Model 550), the absorbance at 450 nm and 655 nm of each well was measured. The cell growth inhibition activity of the test compound was indicated by the 50% growth inhibition concentration (GI50) thereof. A method of calculating GI50 is described. The absorbance at 655 nm of each well was subtracted from the absorbance at 450 nm thereof to give a value (absorbance difference). The absorbance difference obtained with the cells without being treated with the test compound was taken as 100%, and this was compared with the absorbance difference obtained with the cells treated with the test compound to give the concentration of the compound for 50% cell growth inhibition, and this is referred to as GI50.

SMILES	GI50
COC(=O)Cc1cc(O)cc(O)c1-c1ccccc1 [Compound 1, Methyl 3,5-dihydroxy-2-phenylphenylacetate]	≤ 50 µM
COC(=O)Cc1cc(O)cc(O)c1-c1cccc(C=NO)c1 [Compound 3, Methyl 3,5-dihydroxy-2-[3-(hydroxyiminomethyl)phenyl]phenylacetate]	≤ 50 µM
COC(=O)Cc1cc(O)cc(O)c1-c1cccc(C(C)=O)c1 [Compound 8, Methyl 2-(3-acetylphenyl)-3,5-dihydroxyphenylacetate]	≤ 50 µM
COC(=O)Cc1c(Br)c(O)cc(O)c1-c1ccccc1 [Compound 10, Methyl 2-bromo-3,5-dihydroxy-6-phenylphenylacetate]	≤ 50 µM
COC(=O)Cc1c(-c2ccccc2)c(O)cc(O)c1-c1ccccc1 [Compound 11, Methyl 3,5-dihydroxy-2,6-diphenylphenylacetate]	≤ 50 µM
COC(=O)Cc1c(I)c(O)cc(O)c1-c1ccccc1 [Compound 13, Methyl 3,5-dihydroxy-2-iodo-6-phenylphenylacetate]	≤ 50 µM
O=C(Cc1c(Br)c(O)cc(O)c1-c1ccccc1)NCc1cccnc1 [Compound 17, 2-(2-Bromo-3,5-dihydroxy-6-phenylphenyl)-N-(pyridin-3-ylmethyl)acetamide]	≤ 50 µM
O=C(Cc1c(Br)c(O)cc(O)c1-c1ccccc1)NC1CCN(Cc2ccccc2)CC1 [Compound 18, N-(1-benzylpiperidin-4-yl)-2-(2-bromo-3,5-dihydroxy-6-phenylphenyl)acetamide]	≤ 50 µM
COCCNC(=O)Cc1c(Br)c(O)cc(O)c1-c1ccccc1 [Compound 23, 2-(2-Bromo-3,5-dihydroxy-6-phenylphenyl)-N-(2-methoxyethyl)acetamide]	≤ 50 µM
Oc1cc(O)c(-c2ccccc2)c(COCc2ccccc2)c1Br [Compound 25, 5-(Benzyloxymethyl)-6-bromo-4-phenylbenzene-1,3-diol]	≤ 50 µM
O=C(Cc1c(Br)c(O)cc(O)c1-c1ccccc1)N1CCOCC1 [Compound 35, 2-(2-Bromo-3,5-dihydroxy-6-phenylphenyl)-1-morpholinoethanone]	≤ 50 µM
CCCN(C)C(=O)Cc1c(Br)c(O)cc(O)c1-c1ccccc1 [Compound 36, 2-(2-Bromo-3,5-dihydroxy-6-phenylphenyl)-N-methyl-N-propylacetamide]	≤ 50 µM
N#Cc1ccccc1N1CCN(C(=O)Cc2c(Br)c(O)cc(O)c2-c2ccccc2)CC1 [Compound 38, 2-(2-Bromo-3,5-dihydroxy-6-phenylphenyl)-1-[4-(2-cyanophenyl)piperazin-1-yl]ethanone]	≤ 50 µM
NC(=O)Cc1c(Br)c(O)cc(O)c1-c1ccccc1 [Compound 41, 2-(2-Bromo-3,5-dihydroxy-6-phenylphenyl)acetamide]	≤ 50 µM
CN(C)C(=O)Cc1c(Br)c(O)cc(O)c1-c1ccccc1 [Compound 43, 2-(2-Bromo-3,5-dihydroxy-6-phenylphenyl)-N,N-dimethylacetamide]	≤ 50 µM
COC(=O)c1c(Br)c(O)cc(O)c1-c1ccccc1 [Compound 47, Methyl 2-bromo-3,5-dihydroxy-6-phenylbenzoate]	≤ 50 µM
O=C(NCc1ccccc1)c1c(Br)c(O)cc(O)c1-c1ccccc1 [Compound 51, N-benzyl-2-bromo-3,5-dihydroxy-6-phenylbenzamide]	≤ 50 µM
O=C(Cc1c(Br)c(O)cc(O)c1-c1ccccc1)NCc1ccncc1 [Compound 54, 2-(2-Bromo-3,5-dihydroxy-6-phenylphenyl)-N-(pyridin-4-ylmethyl)acetamide]	≤ 50 µM
COC(=O)Cc1c(C=O)c(O)cc(O)c1-c1ccccc1 [Compound 55, Methyl 2-formyl-3,5-dihydroxy-6-phenylphenylacetate]	≤ 50 µM

SMILES	GI50
COC(=O)Cc1c(C)c(O)cc(O)c1-c1ccccc1 [Compound 56, Methyl 3,5-dihydroxy-6-methyl-2-phenylphenylacetate]	≤ 50 µM
O=C(c1ccccc1)c1c(Br)c(O)cc(O)c1-c1ccccc1 [Compound 58, 2-Bromo-3,5-dihydroxy-6-phenylphenyl phenyl ketone]	≤ 50 µM
COC(=O)C=Cc1c(Br)c(O)cc(O)c1-c1ccccc1 [Compound 59, Methyl 3-(2-bromo-3,5-dihydroxy-6-phenylphenyl)acrylate]	≤ 50 µM
CC(=O)C=Cc1c(Br)c(O)cc(O)c1-c1ccccc1 [Compound 60, 4-(2-Bromo-3,5-dihydroxy-6-phenylphenyl)but-3-en-2-one]	≤ 50 µM
COc1c(Br)c(O)cc(O)c1-c1ccccc1 [Compound 61, 6-Bromo-5-methoxy-4-phenylbenzene-1,3-diol]	≤ 50 µM
OCCc1c(Br)c(O)cc(O)c1-c1ccccc1 [Compound 62, 6-Bromo-5-(2-hydroxyethyl)-4-phenylbenzene-1,3-diol]	≤ 50 µM
COCCc1c(Br)c(O)cc(O)c1-c1ccccc1 [Compound 64, 6-Bromo-5-(2-methoxyethyl)-4-phenylbenzene-1,3-diol]	≤ 50 µM
CC(=O)Cc1c(Br)c(O)cc(O)c1-c1ccccc1 [Compound 65, 1-(2-Bromo-3,5-dihydroxy-6-phenylphenyl)propan-2-one]	≤ 50 µM
COC(=O)Cc1c(Cc2ccccc2)c(O)cc(O)c1-c1ccccc1 [Compound 70, Methyl 2-benzyl-3,5-dihydroxy-6-phenylphenylacetate]	≤ 50 µM
COCCOCc1c(Br)c(O)cc(O)c1-c1ccccc1 [Compound 71, 6-Bromo-5-[(2-methoxyethoxy)methyl]-4-phenylbenzene-1,3-diol]	≤ 50 µM
COCCOCCOCc1c(Br)c(O)cc(O)c1-c1ccccc1 [Compound 72, 6-Bromo-5-[2-(2-methoxyethoxy)ethoxymethyl]-4-phenylbenzene-1,3-diol]	≤ 50 µM
COC(=O)Cc1cc(O)cc(O)c1-c1ccc(C(C)=O)cc1 [Compound 73, Methyl 2-(4-acetylphenyl)-3,5-dihydroxyphenylacetate]	≤ 50 µM
COC(=O)Cc1cc(O)cc(O)c1-c1cccc(OC(F)(F)F)c1 [Compound 74, Methyl 3,5-dihydroxy-2-[3-(trifluoromethoxy)phenyl]phenylacetate]	≤ 50 µM
COC(=O)Cc1cc(O)cc(O)c1-c1ccc(OC(F)(F)F)cc1 [Compound 75, Methyl 3,5-dihydroxy-2-[4-(trifluoromethoxy)phenyl]phenylacetate]	≤ 50 µM
COC(=O)Cc1cc(O)cc(O)c1-c1cccc(CO)c1 [Compound 76, Methyl 3,5-dihydroxy-2-[3-(hydroxymethyl)phenyl]phenylacetate]	≤ 50 µM
COC(=O)Cc1cc(O)cc(O)c1-c1cccc([N+](=O)[O-])c1 [Compound 77, Methyl 3,5-dihydroxy-2-(3-nitrophenyl)phenylacetate]	≤ 50 µM
COC(=O)Cc1cc(O)cc(O)c1-c1cccc(C#N)c1 [Compound 78, Methyl 2-(3-cyanophenyl)-3,5-dihydroxyphenylacetate]	≤ 50 µM
COC(=O)Cc1cc(O)cc(O)c1-c1ccc(-c2ccccc2)cc1 [Compound 79, Methyl 3,5-dihydroxy-2-(4-phenylphenyl)phenylacetate]	≤ 50 µM
COC(=O)Cc1cc(O)cc(O)c1-c1ccc(Oc2ccccc2)cc1 [Compound 80, Methyl 3,5-dihydroxy-2-(4-phenoxyphenyl)phenylacetate]	≤ 50 µM

From patent US7538241B2, “Hsp90 family protein inhibitors” (Kyowa Hakko Kogyo Co., Ltd., priority 2003, dated 2009)
